These results are taken from patent US20130085283A1, “GERANYLGERANYLACETONE DERIVATIVES” (Coyote Pharmaceuticals, Inc., priority 2011, published 2013).

Assay [1] relates to HSP70. The experiment in a line: HSP70 protein in rat brain lysates by Western blotting after oral dosing. In kind it is in vivo. The procedure: The compounds tabulated below or vehicle controls were orally dosed at 12 mg/kg to Sprague-Dawley rats. Rat brain tissues were extracted in various time points after the oral dosing. Lysates were prepared from the harvested brain tissues. Western blotting analysis was done for the same protein amounts of these lysates, and western signals of HSP70 were detected by chemiluminescence and quantified in parallel with comparisons of those detected at time 0 hr. Western signals at time 0 hr were normalized as 100.
In general terms: Immunoblotting shows a protein as a band on a membrane.

Assay [2] deals with HSP90. The experiment in a line: Expression of heat shock proteins in vivo, rat brain mRNA by qPCR. The following applies: time 0 = 100%. The procedure:
(§1) GGA trans isomer in 5% Gum Arabic as an aqueous suspension formulation were orally dosed to Sprague-Dawley rats at 12 mg/Kg body weight. Rat brain tissues were extracted in various time points after the oral dosing. mRNA were prepared from those brain tissues extracted, and cDNA were produced. qPCR analysis was done by using primers specifically designed to detect mRNA of HSPs. GAPDH gene was used as a control to compare quantities of HSP cDNAs amplified by qPCR analysis. Amounts of cDNA quantified at time 0 are normalized as 100%, and relative amounts of cDNA compared with those at various time points are depicted in the tables below: […]
For orientation: Real-time PCR tracks product formation cycle by cycle.

Assay [3] relates to HSP27. Described as above. The following applies: time 0 = 100%. The procedure: as §1
Assay [4] relates to HSP60. The description is as above. The following applies: time 0 = 100%. As to the method: as §1
For assay [5], the system named is HSP70. Described as above. The following applies: time 0 = 100%. As to the method:
as §1

The test system of assay [6] is GAPDH. Kind of assay: Expression of heat shock proteins in vivo, rat brain mRNA by qPCR (control gene). The settings on record: time 0 = 100%. The procedure:
as §1

Setting [7] is: 12 hr after oral 12 mg/kg, time 0 hr = 100, Vehicle 102%.
Where [8] appears, read: 48 hr after oral 12 mg/kg, time 0 hr = 100, Vehicle 105%.
The mark [9] stands for this setting: 96 hr after oral 12 mg/kg, time 0 hr = 100, Vehicle 99%.
[10] abbreviates: 12 hr after oral 12 mg/Kg in 5% Gum Arabic.
[11] abbreviates: 24 hr after oral 12 mg/Kg in 5% Gum Arabic.
The mark [12] stands for this setting: 48 hr after oral 12 mg/Kg in 5% Gum Arabic.
[13] abbreviates: 96 hr after oral 12 mg/Kg in 5% Gum Arabic.

Take `CC(C)=CCC/C(C)=C/CC/C(C)=C/CC/C(C)=C/CC1CCCCC1=O` (centres unmarked) [drawing 180]: the “Western signal of HSP70 in brain” value in assay [1] (setting [7]) was 116%; in assay [1] (setting [8]) it was 114%; in assay [1] (setting [9]) it was 97%.

Turning to `CC(=O)CC/C=C(\C)CC/C=C(\C)CC/C=C(\C)CCC=C(C)C` (single isomer, unassigned) [GGA trans isomer, 5E,9E,13E-Geranylgeranyl acetone], the “Western signal of HSP70 in brain” value stood at 115% in assay [1] (setting [7]), 115% in assay [1] (setting [8]) and 114% in assay [1] (setting [9]). For the same compound, the “HSP90 relative amount of cDNA” value was 107.69% in assay [2] (setting [10]), 106.92% in assay [2] (setting [11]), 105.38% in assay [2] (setting [12]) and 100.77% in assay [2] (setting [13]). Also, the “HSP27 relative amount of cDNA” value in assay [3] (setting [10]) is given as 115.38%; in assay [3] (setting [11]), 114.61%; in assay [3] (setting [12]), 116.15%; in assay [3] (setting [13]) it was 103.84%. Further, the “HSP60 relative amount of cDNA” value in assay [4] (setting [10]) is recorded as 113.84%; in assay [4] (setting [11]), 130.00%; in assay [4] (setting [12]), 116.92%; in assay [4] (setting [13]), 103.85%. Moreover, the “HSP70 relative amount of cDNA” value in assay [5] (setting [10]) came out at 118.46%; in assay [5] (setting [11]), 107.69%; in assay [5] (setting [12]), 106.15%; in assay [5] (setting [13]), 103.85%. Also, the “GAPDH relative amount of cDNA (control gene)” value in assay [6] (setting [10]) was determined as 96.93%; in assay [6] (setting [11]), 99.24%; in assay [6] (setting [12]) it was 100%; in assay [6] (setting [13]) it was 102.31%.
